Measured values from article PMC9675719, “Expedient Synthesis of a Library of Heparan Sulfate‐Like “Head‐to‐Tail” Linked Multimers for Structure and Activity Relationship Studies” (Angewandte Chemie (International Ed. in English), 2022).
pIC50, pKd: −log10 of the molar value. Where two headings read alike, the source gives them in different places.

Assays:
[1] = biological target: T1, FGF-2 (Homo sapiens, UniProt P09038); assay: Direct binding SPR with FGF-2 immobilized on CDH sensor chip; settings: for pKd: immobilized FGF-2, 1:2 interaction model, read-out: dissociation constant (KD) of binding to FGF-2
Protocol: The direct binding of FGF‐2 to the HS mimetics was measured by surface plasmon resonance (SPR). FGF‐2 was immobilized on a carboxymethyl dextran high capacity (CDH) sensor chip surface through carbodiimide mediated coupling. O‐/N‐Sulfated (33), O‐sulfated (33 z) and N‐sulfated (33 m) pseudo‐hexasaccharides were selected as analytes in addition to the heparin polysaccharide (MW: 17.2 kDa). […] Seeberger and co‐workers studied the binding of HS hexasaccharides with FGF‐2 through a powerful glycan microarray technology.[36] […] The N‐acetylated, O‐sulfated hexasaccharide 35 gave binding of ≈20 % of that of heparin, while the hexasaccharide 36 having three N‐sulfates only gave the lowest signal (<2%) binding to FGF‐2. The trend of decreasing FGF‐2 affinity from N‐ and O‐sulfated, to O‐sulfated only, to N‐sulfated only sequences of HS hexasaccharides (34, 35, 36) correlates well with those of the pseudo‐hexasaccharides 33, 33 z, and 33 m.
Figure 3 a) The SPR sensorgram of FGF‐2 binding with compound 33. The concentrations of 33 from top to bottom curves were 750 nM, 500 nM, 250 nM, 100 nM, 10 nM, and 1 nM. Each experiment was repeated at least three times with the representative data shown. The vertical line indicates the time when the dissociation process started. b) Table of K D values determined for 33, 33 z, and 33 m through the FGF‐2 SPR binding assay. c) Structures of compounds 35–38.
Measurements of binding constants of pseudo-hexasaccharides 33, 33z, and 33m with FGF-2 […]
FGF-2 was immobilized on sensor chip by primary amine coupling reaction. The surface of a CDH sensor chip (FortéBio, Inc., Molecular Devices, USA) was activated using freshly mixed N-hydroxysuccimide (NHS; 0.05 M) and 1-(3-(dimethylamino)propyl)-ethylcarbodiimide (EDC; 0.2 M) (1/1,v/v) in water, followed by the injection of FGF -2 (50 µg/ml) in PBS buffer. The remaining active esters were quenched by ethanolamine (1.0 M). Solutions of various concentrations of pseudo-hexasaccharides 33, 33z, and 33m dissolved in 0.01% Tween 20 PBS buffer were injected over the FGF-2 chip at a flow rate of 30 µL/min, and the responses to binding were recorded .
Aqueous NaCl solution (2.0 M) was employed for regeneration to achieve baseline status after each run. Sensorgrams were evaluated using the Qdat program. The response data due to association and dissociation were processed in Qdat using a reference surface to correct for any bulk refractive index changes and blank injections for double referencing . The binding profiles were fit globally into a 1:2 interaction model. The KD values were calculated by the Qdat software.
Analysis of the inhibition of pseudo-hexasaccharides on heparin/FGF-2 interaction using […]

[2] = biological target: T1, FGF-2; assay: Competition SPR assay: inhibition of FGF-2 interaction with immobilized biotinylated heparin; assay type: binding; settings: for pIC50: immobilized biotinylated heparin, FGF-2 50 nM, read-out: IC50 (amount of mimetic needed to reduce the FGF-2 binding by 50 %)
Protocol: A competition SPR assay was performed to establish the SAR between the full panel of 27 HS‐like pseudo‐hexasaccharides and FGF‐2 (Figure 4). Biotinylated heparin was immobilized on the biosensor, and the pseudo‐hexasaccharides (10 μM) were mixed with FGF‐2 (50 nM) individually. […] The trend of 33, 33 z and 33 m in the order of decreasing FGF‐2 affinity is consistent with that observed in the direct binding SPR study (Figures 3 and S1). The IC50 values of several disaccharides and pseudo‐tetrasaccharides with FGF‐2 have also been measured. The disaccharides bound weakly with FGF‐2, and the fully sulfated pseudo‐tetrasaccharide gave the strongest binding among the pseudo‐tetrasaccharides tested, which in turn was much weaker than that of the pseudo‐hexasaccharide 33 (Figure S2).
Figure 4 Inhibition of 27 pseudo‐hexasaccharides (33, 33 a–z) on FGF‐2 interaction with heparin through a competition SPR assay. Biotinylated heparin was immobilized on the SPR biosensor. For the control well, FGF‐2 (50 nM) was flown over the sensor and the intensity of the signal due to FGF‐2 binding was set as a reference (100 %). […] Normalized FGF‐2 binding % was calculated based on the following formula: (signal intensity of FGF‐2/pseudo‐hexasaccharide)/(signal intensity of FGF‐2 only)×100 %. […]
FGF-2 was immobilized on sensor chip by primary amine coupling reaction. […] Solutions of various concentrations of pseudo-hexasaccharides 33, 33z, and 33m dissolved in 0.01% Tween 20 PBS buffer were injected over the FGF-2 chip at a flow rate of 30 µL/min, and the responses to binding were recorded .
Aqueous NaCl solution (2.0 M) was employed for regeneration to achieve baseline status after each run. Sensorgrams were evaluated using the Qdat program. […] The KD values were calculated by the Qdat software. […]
Heparin SPR chip was prepared by immobilizing biotinylated heparin on SA sensor chip (Cytiva, Uppsala, Sweden).[13] […] Normalized FGF - 2 binding % was calculated based on the following formula: (signal intensity o f FGF-2/pseudohexasaccharide)/(signal intensity of FGF -2 only) x 100%. […]

[3] = biological target: T1, FGF-2; parameters: method as in PMID 17066397; settings: glycan microarray, glycan concentration 16 μM; cited from earlier work
[4] = biological target: T1, FGF-2; parameters: method as in PMID 28651046, PMID 24959968; settings: read-out: KD of FGF-2 binding; cited from earlier work

T1 sequence (P09038 134-288 limits assumed, species assumed): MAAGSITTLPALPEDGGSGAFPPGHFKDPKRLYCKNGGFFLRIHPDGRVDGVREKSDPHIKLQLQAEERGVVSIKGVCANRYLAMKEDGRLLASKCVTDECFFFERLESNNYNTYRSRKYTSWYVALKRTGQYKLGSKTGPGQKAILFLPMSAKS

CC(=O)NCCO[C@@H]1O[C@@H](C(=O)O)[C@@H](O[C@H]2O[C@H](CO)[C@@H](OCCC(=O)NCCO[C@@H]3O[C@@H](C(=O)O)[C@@H](O[C@H]4O[C@H](CO)[C@@H](OCCC(=O)NCCO[C@@H]5O[C@@H](C(=O)O)[C@@H](O[C@H]6O[C@H](CO)[C@@H](OCCC(=O)O)[C@H](O)[C@H]6NS(=O)(=O)O)[C@H](O)[C@H]5O)[C@H](O)[C@H]4NS(=O)(=O)O)[C@H](O)[C@H]3O)[C@H](O)[C@H]2NS(=O)(=O)O)[C@H](O)[C@H]1O [33 m]
binding to FGF-2 (in words) ([1]; immobilized FGF-2, at 3 μM): little binding | Kd ([1]; immobilized FGF-2, value printed in μM under head KD value (nM), read-out: KD value): > 3 µM | inhibition of FGF-2/heparin interaction (in words) ([2]; under the experimental condition): did not exhibit any inhibition

CC(=O)NCCO[C@@H]1O[C@@H](C(=O)O)[C@@H](O[C@H]2O[C@H](COS(=O)(=O)O)[C@@H](OCCC(=O)NCCO[C@@H]3O[C@@H](C(=O)O)[C@@H](O[C@H]4O[C@H](COS(=O)(=O)O)[C@@H](OCCC(=O)NCCO[C@@H]5O[C@@H](C(=O)O)[C@@H](O[C@H]6O[C@H](COS(=O)(=O)O)[C@@H](OCCC(=O)O)[C@H](O)[C@H]6NC(C)=O)[C@H](O)[C@H]5OS(=O)(=O)O)[C@H](O)[C@H]4NC(C)=O)[C@H](O)[C@H]3OS(=O)(=O)O)[C@H](O)[C@H]2NC(C)=O)[C@H](O)[C@H]1OS(=O)(=O)O [33 z]
pKd [1]: 6.03 | pIC50 [2]: ~4.00

CC(=O)NCCO[C@@H]1O[C@@H](C(=O)O)[C@@H](O[C@H]2O[C@H](COS(=O)(=O)O)[C@@H](OCCC(=O)NCCO[C@@H]3O[C@@H](C(=O)O)[C@@H](O[C@H]4O[C@H](COS(=O)(=O)O)[C@@H](OCCC(=O)NCCO[C@@H]5O[C@@H](C(=O)O)[C@@H](O[C@H]6O[C@H](COS(=O)(=O)O)[C@@H](OCCC(=O)O)[C@H](O)[C@H]6NS(=O)(=O)O)[C@H](O)[C@H]5OS(=O)(=O)O)[C@H](O)[C@H]4NS(=O)(=O)O)[C@H](O)[C@H]3OS(=O)(=O)O)[C@H](O)[C@H]2NS(=O)(=O)O)[C@H](O)[C@H]1OS(=O)(=O)O [compound 33]
pKd [1]: 7.71 | pIC50 [2]: 5.77

NCCS(=O)(=O)CCCCCO[C@@H]1O[C@@H](C(=O)O)[C@@H](O[C@H]2O[C@H](COS(=O)(=O)O)[C@@H](O[C@@H]3O[C@@H](C(=O)O)[C@@H](O[C@H]4O[C@H](COS(=O)(=O)O)[C@@H](O[C@@H]5O[C@@H](C(=O)O)[C@@H](O[C@H]6O[C@H](COS(=O)(=O)O)[C@@H](O)[C@H](O)[C@H]6NS(=O)(=O)O)[C@H](O)[C@H]5OS(=O)(=O)O)[C@H](O)[C@H]4NS(=O)(=O)O)[C@H](O)[C@H]3OS(=O)(=O)O)[C@H](O)[C@H]2NS(=O)(=O)O)[C@H](O)[C@H]1OS(=O)(=O)O [compound 34]
binding to FGF-2 as compared to heparin polysaccharide [3]: ≈ 60%

CC(=O)N[C@H]1[C@@H](O[C@H]2[C@H](O)[C@@H](OS(=O)(=O)O)[C@H](OCCCCCN)O[C@H]2C(=O)O)O[C@H](COS(=O)(=O)O)[C@@H](O[C@@H]2O[C@@H](C(=O)O)[C@@H](O[C@H]3O[C@H](COS(=O)(=O)O)[C@@H](O[C@@H]4O[C@@H](C(=O)O)[C@@H](O[C@H]5O[C@H](COS(=O)(=O)O)[C@@H](O)[C@H](O)[C@H]5NC(C)=O)[C@H](O)[C@H]4OS(=O)(=O)O)[C@H](O)[C@H]3NC(C)=O)[C@H](O)[C@H]2OS(=O)(=O)O)[C@@H]1O [compound 35]
binding to FGF-2 as compared to heparin polysaccharide [3]: ≈ 20%

NCCCCCO[C@@H]1O[C@@H](C(=O)O)[C@@H](O[C@H]2O[C@H](CO)[C@@H](O[C@@H]3O[C@@H](C(=O)O)[C@@H](O[C@H]4O[C@H](CO)[C@@H](O[C@@H]5O[C@@H](C(=O)O)[C@@H](O[C@H]6O[C@H](CO)[C@@H](O)[C@H](O)[C@H]6NS(=O)(=O)O)[C@H](O)[C@H]5O)[C@H](O)[C@H]4NS(=O)(=O)O)[C@H](O)[C@H]3O)[C@H](O)[C@H]2NS(=O)(=O)O)[C@H](O)[C@H]1O [compound 36]
binding to FGF-2 as compared to heparin polysaccharide [3]: < 2%

CO[C@@H]1O[C@@H](C(=O)O)[C@@H](O[C@H]2O[C@H](COS(=O)(=O)O)[C@@H](O)[C@H](O)[C@H]2NS(=O)(=O)O)[C@H](O)[C@H]1OS(=O)(=O)O [compound 37]
pKd [4]: 4.76

NCCCCCO[C@H]1O[C@H](COS(=O)(=O)O)[C@@H](O[C@@H]2O[C@@H](C(=O)O)[C@@H](O[C@H]3O[C@H](COS(=O)(=O)O)[C@@H](O[C@@H]4O[C@@H](C(=O)O)[C@@H](O)[C@H](O)[C@H]4O)[C@H](O)[C@H]3NS(=O)(=O)O)[C@H](O)[C@H]2OS(=O)(=O)O)[C@H](O)[C@H]1NS(=O)(=O)O [compound 38]
pKd [4]: 5.92
